Values joined by “and” are separate entries in the source; they are usually repeats but may differ in a detail not shown here. Identical values can stand only once.

In experiment [1] the target is T1, butyrylcholinesterase from equine serum (Equus caballus, UniProt P81908).
T1 construct: butyrylcholinesterase from equine serum; purchased Sigma Aldrich, Milan, Italy; host or cells: equine serum
Nature of the experiment: biochemical. Conditions: for IC50: BChE from equine serum, mean ±SEM of three; for inhibition at 10 µM: read-out: BChE % inhibition at 10 μM. It counts as biochemical. How it is done:
(§1) In vitro enzymatic screening toward ChEs was carried out according to the known Ellman’s protocol, by using eeAChE and esBChE as highly homologous and cheaper surrogates for human enzymes. The enzyme inhibition assays on human MAOs were performed by applying already reported methods.
(§2) All enzymes and reagents were purchased from Sigma Aldrich, Milan, Italy. Inhibition of human recombinant MAO A and B was assayed by monitoring the fluorescence of 4-hydroxyquinoline produced from the oxidation of substrate kynuramine, following a previously published method. Acetylcholinesterase from electric eel and butyrylcholinesterase from equine serum were used in the Ellman’s spectrophotometric method as already described. In all cases, a 96-well plate procedure was used with an Infinite M1000 Pro plate reader (Tecan, Cernusco sul Naviglio, Italy). Inhibition values were determined as IC50 values by statistical analysis using Prism (GraphPad Prism version 5.00 for Windows, GraphPad Software, San Diego, CA, USA).

For experiment [2], the target named is T2, Acetylcholinesterase from electric eel (Electrophorus electricus, UniProt O42275).
T2 construct: purchased Sigma Aldrich, Milan, Italy
T2 sequence (O42275 24-633): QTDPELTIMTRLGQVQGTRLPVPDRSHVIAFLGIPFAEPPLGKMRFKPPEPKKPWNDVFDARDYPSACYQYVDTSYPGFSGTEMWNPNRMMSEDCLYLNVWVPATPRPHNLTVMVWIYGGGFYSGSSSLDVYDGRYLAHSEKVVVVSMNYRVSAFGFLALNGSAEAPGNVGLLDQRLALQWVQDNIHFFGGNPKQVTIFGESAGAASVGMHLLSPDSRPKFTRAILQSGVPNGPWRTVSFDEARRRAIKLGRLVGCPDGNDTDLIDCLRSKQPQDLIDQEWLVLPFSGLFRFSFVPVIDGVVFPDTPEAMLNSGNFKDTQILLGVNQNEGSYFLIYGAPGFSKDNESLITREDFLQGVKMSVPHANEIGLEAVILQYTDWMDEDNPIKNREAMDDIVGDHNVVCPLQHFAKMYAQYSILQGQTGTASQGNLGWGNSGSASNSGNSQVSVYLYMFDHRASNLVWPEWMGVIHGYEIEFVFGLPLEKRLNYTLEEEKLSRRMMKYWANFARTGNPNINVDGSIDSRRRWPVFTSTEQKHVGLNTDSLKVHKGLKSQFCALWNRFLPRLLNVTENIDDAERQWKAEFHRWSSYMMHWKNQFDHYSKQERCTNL
The experiment can be described thus: biochemical. Conditions: for IC50: AChE from electric eel, mean ±SEM of three. It is filed as biochemical. As for the experimental part: as §1, §2

In experiment [3] the target is T3, human recombinant MAO A (Homo sapiens, UniProt P21397).
T3 construct: purchased Sigma Aldrich, Milan, Italy
T3 sequence (P21397 1-527): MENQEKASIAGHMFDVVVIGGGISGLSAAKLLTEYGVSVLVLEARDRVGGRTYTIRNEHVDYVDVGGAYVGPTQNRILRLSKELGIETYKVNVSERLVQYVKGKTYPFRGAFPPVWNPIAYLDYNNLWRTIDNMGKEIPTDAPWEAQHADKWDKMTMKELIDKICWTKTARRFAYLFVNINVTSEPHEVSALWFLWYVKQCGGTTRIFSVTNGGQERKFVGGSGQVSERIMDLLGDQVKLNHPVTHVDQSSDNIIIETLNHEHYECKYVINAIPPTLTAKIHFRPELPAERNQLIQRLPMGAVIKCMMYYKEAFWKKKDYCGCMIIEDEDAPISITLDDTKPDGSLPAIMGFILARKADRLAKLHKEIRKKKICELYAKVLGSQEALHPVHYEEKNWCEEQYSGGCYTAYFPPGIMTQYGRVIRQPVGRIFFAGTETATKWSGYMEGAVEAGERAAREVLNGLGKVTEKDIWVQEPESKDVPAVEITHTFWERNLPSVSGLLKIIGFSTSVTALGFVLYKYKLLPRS
Nature of the experiment: biochemical. Conditions: human recombinant MAO; for inhibition at 10 µM: read-out: MAO A % inhibition at 10 μM, mean ±SEM of three; for IC50: mean ±SEM of three independent experiments, read-out: MAO A IC50. As for the experimental part: as §1, §2

Experiment [4] deals with T4, human recombinant MAO B (Homo sapiens, UniProt P27338).
T4 construct: purchased Sigma Aldrich, Milan, Italy
T4 sequence (P27338 1-520): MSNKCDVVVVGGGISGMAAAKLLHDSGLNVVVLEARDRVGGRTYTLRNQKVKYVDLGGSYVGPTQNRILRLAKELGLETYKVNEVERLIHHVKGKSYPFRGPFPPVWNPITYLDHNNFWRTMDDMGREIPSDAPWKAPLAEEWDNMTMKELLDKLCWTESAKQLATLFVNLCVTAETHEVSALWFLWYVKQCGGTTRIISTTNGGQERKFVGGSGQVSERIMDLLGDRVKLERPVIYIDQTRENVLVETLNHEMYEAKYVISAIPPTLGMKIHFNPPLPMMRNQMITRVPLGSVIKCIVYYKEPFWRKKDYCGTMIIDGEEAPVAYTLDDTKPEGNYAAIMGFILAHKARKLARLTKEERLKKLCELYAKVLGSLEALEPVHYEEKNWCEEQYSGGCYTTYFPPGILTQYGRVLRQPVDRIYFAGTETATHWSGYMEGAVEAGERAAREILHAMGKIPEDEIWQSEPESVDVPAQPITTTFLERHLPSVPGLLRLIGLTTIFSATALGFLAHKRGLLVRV
The experiment can be described thus: Human recombinant MAO B inhibition (kynuramine fluorescence). It counts as biochemical. Conditions: human recombinant MAO; mean ±SEM of three independent experiments; read-out: MAO B IC50. As for the experimental part: as §1, §2

T1 sequence (P81908 whole entry): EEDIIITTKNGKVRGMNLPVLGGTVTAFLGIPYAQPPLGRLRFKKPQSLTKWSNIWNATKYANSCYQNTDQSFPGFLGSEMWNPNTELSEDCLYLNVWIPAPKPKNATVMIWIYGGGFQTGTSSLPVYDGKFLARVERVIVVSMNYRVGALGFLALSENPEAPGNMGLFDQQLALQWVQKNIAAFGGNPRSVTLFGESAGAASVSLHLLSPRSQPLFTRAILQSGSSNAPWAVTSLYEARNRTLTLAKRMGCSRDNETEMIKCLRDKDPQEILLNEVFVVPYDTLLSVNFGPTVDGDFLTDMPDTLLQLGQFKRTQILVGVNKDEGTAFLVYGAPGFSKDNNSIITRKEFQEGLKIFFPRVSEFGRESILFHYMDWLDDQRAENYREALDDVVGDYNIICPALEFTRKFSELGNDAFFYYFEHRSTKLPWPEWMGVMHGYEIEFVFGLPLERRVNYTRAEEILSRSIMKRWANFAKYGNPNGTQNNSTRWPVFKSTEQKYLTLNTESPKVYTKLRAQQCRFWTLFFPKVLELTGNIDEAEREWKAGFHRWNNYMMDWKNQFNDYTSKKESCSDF

With `O=c1cc(CNCc2ccccc2)c2ccc(OCc3cccc(Cl)c3)cc2o1` [compound 13, 4-[(benzylamino)methyl]-7-[(3-chlorobenzyl)oxy]-2H-chromen-2-one], the IC50 in experiment [1] is 3400 ± 1300 nM; in experiment [2], 17000 ± 1000 nM; in experiment [4], 103 ± 1 nM. The inhibition at 10 µM in experiment [3] is 24 ± 3%.

As to `O=c1cc(CN2CCOCC2)c2ccc(OCc3cccc(Cl)c3)cc2o1` [compound 17, 7-[(3-chlorobenzyl)oxy]-4-(morpholin-4-ylmethyl)-2H-chromen-2-one], the results for the inhibition at 10 µM in experiment [1] and in experiment [3] were 46 ± 2% and 32 ± 3%, respectively. For the same compound, the figures for the IC50 in experiment [2] and in experiment [4] were 6600 ± 1100 nM and 172 ± 1 nM, respectively.

As for `CCCNCc1cc(=O)oc2cc(OCc3cccc(Cl)c3)ccc12` [compound 20, 7-[(3-chlorobenzyl)oxy]-4-[(propylamino)methyl]-2H-chromen-2-one], the half-inhibitory concentration (IC50) in experiment [1] was determined as 3600 ± 800 nM; in experiment [2], 4900 ± 1400 nM; in experiment [4], 9.4 ± 3.5 nM. For the same compound, in experiment [3], the inhibition at 10 µM turned out to be 48 ± 1%.

On to `CNCc1cc(=O)oc2c(C)c(OCc3cccc(Cl)c3)ccc12` [compound 10, 7-[(3-Chlorobenzyl)oxy]-8-methyl-4-[(methylamino)methyl]-2H-chromen-2-one], for which the inhibition at 10 µM in experiment [1] turned out to be 46 ± 2%. The 50% inhibitory concentration (IC50) in experiment [2] is 7200 ± 600 nM; in experiment [3] it was 1000 ± 100 nM; in experiment [4], 170 ± 10 nM.

With `O=c1cc(CN2CCCC2)c2ccc(OCc3cccc(Cl)c3)cc2o1` [compound 15, 7-[(3-chlorobenzyl)oxy]-4-(pyrrolidin-1-ylmethyl)-2H-chromen-2-one], the inhibition at 10 µM in experiment [1] turned out to be 14 ± 2%. The half-inhibitory concentration (IC50) in experiment [2] is 6600 ± 900 nM; in experiment [3] it was 1120 ± 10 nM; in experiment [4], 152 ± 20 nM.

For `CNCc1cc(=O)oc2cc(OCc3cccc(F)c3)ccc12` [compound 9, 7-[(3-fluorobenzyl)oxy]-4-[(methylamino)methyl]-2H-chromen-2-one], the IC50 in experiment [1] is 4800 ± 300 nM; in experiment [2], 2700 ± 1000 nM; in experiment [3], 1740 ± 40 nM; in experiment [4], 1.3 ± 0.1 nM.

Regarding `C#CCNCc1cc(=O)oc2cc(OCc3cccc(Cl)c3)ccc12` [compound 22, 7-[(3-Chlorobenzyl)oxy]-4-[(prop-2-yn-1-ylamino)methyl]-2H-chromen-2-one], the inhibition at 10 µM in experiment [1] is 33 ± 6%. Moreover, the figures for the IC50 in experiment [2], in experiment [3] and in experiment [4] were 2100 ± 200 nM, 1100 ± 100 nM and 4.1 ± 1.1 nM, respectively.

Consider `CNCc1cc(=O)oc2cc(OCc3ccc4c(c3)OCO4)ccc12` [compound 6, 7-(1,3-benzodioxol-5-ylmethoxy)-4-[(methylamino)methyl]-2H-chromen-2-one], for which the IC50 in experiment [1] worked out at 3400 ± 2100 nM; in experiment [2] it was 8500 ± 1800 nM; in experiment [3] it was 1200 ± 100 nM; in experiment [4], 7.5 ± 0.1 nM.

Consider `NCc1cc(=O)oc2cc(OCc3cccc(Cl)c3)ccc12` [compound 18, 4-(aminomethyl)-7-[(3-chlorobenzyl)oxy]-2H-chromen-2-one], for which the inhibition at 10 µM in experiment [1] is 20 ± 7%; in experiment [3], 46 ± 3%. Moreover, the values for the IC50 in experiment [2] and in experiment [4] were 17000 ± 4000 nM and 66 ± 15 nM, respectively.

In the case of `CNCc1cc(=O)oc2cc(OCc3cccc(Cl)c3)c(Cl)cc12` [compound 12, 6-Chloro-7-[(3-chlorobenzyl)oxy]-4-[(methylamino)methyl]-2H-chromen-2-one], the inhibition at 10 µM is 27 ± 2% in experiment [1] and 48 ± 1% in experiment [3]. Also, the IC50 in experiment [2] is 7900 ± 400 nM; in experiment [4], 1000 ± 100 nM.

For `CN1CCN(Cc2cc(=O)oc3cc(OCc4cccc(Cl)c4)ccc23)CC1` [compound 16, 7-[(3-Chlorobenzyl)oxy]-4-[(4-methylpiperazin-1-yl)methyl]-2H-chromen-2-one], the IC50 in experiment [1] was 2300 ± 900 nM; in experiment [2], 3100 ± 600 nM; in experiment [4], 270 nM and 273 nM. Besides, the “BChE/MAO B IC50 ratio” value in experiment [1] (esBChE vs human MAO B) came out at 9. In addition, the “AChE/MAO B IC50 ratio” value in experiment [2] (eeAChE vs human MAO B) stood at 11. In addition, the inhibition at 10 µM in experiment [3] was 32 ± 5%.

Values taken from paper PMC6943664 (Molecules, 2019).
